The source of these data is ChEMBL document CHEMBL1140742, “Discovery of novel chemotypes to a G-protein-coupled receptor through ligand-steered homology modeling and structure-based virtual screening” (J Med Chem, 2008).

Usually Ki stands for the equilibrium dissociation constant of an inhibitor or competing ligand from its target. As usually defined, the inhibition is how much of the control response was suppressed. Low values mean little suppression, high ones strong suppression.

For one experiment, the target named is T1, Melanin-concentrating hormone receptor 1 (Homo sapiens, UniProt Q99705). Briefly: Displacement of [125I]MCH from human MCHR1 expressed in CHO cell membranes. (Loss of bound radioactivity is the signal in a displacement assay; it reports binding, not function.)
T1 sequence (Q99705 whole entry): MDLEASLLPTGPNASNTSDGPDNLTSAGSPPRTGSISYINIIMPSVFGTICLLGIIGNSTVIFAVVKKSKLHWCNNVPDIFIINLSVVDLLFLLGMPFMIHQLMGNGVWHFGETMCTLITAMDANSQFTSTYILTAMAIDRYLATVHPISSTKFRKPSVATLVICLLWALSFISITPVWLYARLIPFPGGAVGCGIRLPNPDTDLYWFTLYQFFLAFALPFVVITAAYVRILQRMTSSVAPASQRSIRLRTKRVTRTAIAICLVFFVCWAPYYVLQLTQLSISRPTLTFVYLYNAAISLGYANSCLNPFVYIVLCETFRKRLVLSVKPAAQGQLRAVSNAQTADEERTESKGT
In turn, `Cc1ccc(S(=O)(=O)CN(Cc2ccccc2)CS(=O)(=O)c2ccc(C)cc2)cc1` showed a Ki of 7.5 µM. The compound `Cc1ccccc1Nc1nc(N)nc(CN(C)Cc2cccc(Cl)c2)n1` registered a Ki of 7.8 µM.

As for `CCN(CC)CCCn1c(-c2ccc(Br)cc2)cn2c3ccccc3nc12`, the affinity, expressed as Ki, was 11.9 µM. `CC(C)N(CCCNC(=O)c1cc2sccc2n1C)Cc1ccccc1` gave a Ki of 20.9 µM. Take `CCN(CC)Cc1cc(N=C2NS(=O)(=O)c3ccccc32)ccc1OC(=O)c1ccc(OC)cc1`: the Ki was 11.3 µM. In the case of `CCCCCCN(CS(=O)(=O)c1ccc(C)cc1)CS(=O)(=O)c1ccc(C)cc1`, the Ki came out at 1.7 µM.

As to `Cc1ccccc1SCN(CCc1ccccc1)CSc1ccccc1C`, the Ki is 7.5 µM. On the same count and under the same terms, next, `COc1ccc(/C=C2/SC(=S)N(CCCC(=O)OCCN(C)C)C2=O)cc1`: 8.1 µM.

A further experiment has as its target T1, Melanin-concentrating hormone receptor 1. Briefly: Displacement of [125I]MCH from human MCHR1 expressed in CHO cell membranes at 5 ug/ml.
For `COc1ccccc1Nc1nc(N)nc(CN(C)C2CCCCC2)n1`, the inhibition stood at 0%. As for `CCOc1ccccc1Nc1nc(N)nc(CN(C)C2CCCCC2)n1`, the inhibition was determined as 16%. `Cc1ccc(S(=O)(=O)CN(CS(=O)(=O)c2ccc(C)cc2)c2ccc(Br)cc2F)cc1` yielded an inhibition of 10%. Compound `CCOc1ccc(Nc2nc(N)nc(CN(C)C3CCCCC3)n2)cc1` showed an inhibition of 3%. Compound `CCCn1c(-c2ccc(-c3ccccc3)cc2)c(C(C)=O)n2c3ccccc3nc12` yielded an inhibition of 18%.

For the compound `COc1ccc(-c2cn3c4ccccc4nc3n2CCCN2CCOCC2)cc1`, the inhibition worked out at 0%. Compound `COc1cc(C(=O)Oc2ccc(N(Cc3cccs3)C3=NS(=O)(=O)c4ccccc43)cc2)cc(OC)c1OC` registered an inhibition of 10%.

Regarding `COc1ccc(Nc2nc(N)nc(CN(C)C3CCCCC3)n2)cc1`, the inhibition turned out to be 0%. On the same count and under the same terms, next, `COc1ccccc1CN(C(=O)c1cc2sccc2n1C)C1CC(C)(C)NC(C)(C)C1`: 3%. Take `O=C(c1cc2sccc2n1Cc1ccc(F)cc1)N(CCCN1CCOCC1)Cc1cccnc1`: the inhibition came to 44%.

The compound `CCOc1ccc(NC2=NS(=O)(=O)c3cc([N+](=O)[O-])ccc32)cc1` returned an inhibition of 4%. Take `O=C(Nc1ccccc1)c1c(-c2ccccc2)n(Cc2ccccc2)c2nc3ccccc3n12`: the inhibition was 15%.

Turning to `CCC(=O)Oc1ccc(NC2=NS(=O)(=O)c3ccccc32)cc1`, the inhibition was determined as 31%.

`COc1cc(CN(CCCn2ccnc2)C(=O)c2cc3sccc3n2C)cc(OC)c1`: the inhibition was 0%.
